# Reference: publication PMC10632520, “Structural flexibility of apolipoprotein E-derived arginine-rich peptides improves their cell penetration capability” (Scientific Reports, 2023)
# Residues, ends and D or L forms follow the SMILES beside them.
# Experiment: Channel current (electrophysiological) analysis of peptide-induced pores
# Assay type: physicochemical
# Settings: planar DOPC bilayer, 10 µM peptide, 100 mV; pH 7.0
# Protocol: Electrophysiological measurements were performed using a MECA 16 TC chip with an Orbit 16 TC device (Nanion Technologies GmbH, Munich, Germany) according to the manufacturer’s instructions. The MECA 16 TC chamber was filled with 200 µL of buffer solution (150 mM KCl, 10 mM MOPS, pH 7.0); 1 µL of DOPC (lipid/n-decan, 10 mg/mL) solution was added to the chamber, and planar lipid bilayers were automatically prepared using the Orbit 16TC stirrer. The peptide was then dissolved in the chamber at 10 µM (a lipid/peptide molar ratio of ~ 6 in the chamber system), and 100 mV of voltage was applied. The channel current was monitored using the Orbit 16 TC Elements Data Reader 4 v.1.0.22. The channel current signals were detected using a 4-kHz low-pass filter at a sampling frequency of 20 kHz. Analysis of the channel signals was performed using pCLAMP ver. 10.7 (Molecular Devices, CA, USA). The data obtained in this measurement are n (number of current signals): 2081 > n > 311; N (number of experiments) > 3.
compound,measurement,value
CC(=O)N[C@@H](CC(C)C)C(=O)N[C@@H](CCCNC(=N)N)C(=O)N[C@@H](CCCCN)C(=O)N[C@@H](CC(C)C)C(=O)N[C@@H](CCCNC(=N)N)C(=O)N[C@@H](CCCCN)C(=O)N[C@@H](CCCNC(=N)N)C(=O)N[C@@H](CC(C)C)C(=O)N[C@@H](CC(C)C)C(=O)N[C@@H](CCCNC(=N)N)C(=O)N[C@@H](CC(C)C)C(=O)N[C@@H](Cc1c[nH]c2ccccc12)C(=O)N[C@@H](CCCCN)C(=O)N[C@@H](CC(C)C)C(=O)N[C@@H](CCCNC(=N)N)C(=O)N[C@@H](CCCCN)C(=O)N[C@@H](CCCNC(=N)N)C(N)=O [A2-17] (Ac-LRKLRKRLLRLWKLRKR-NH2),charge flux accompanied by spike current signal,much greater for A2-17 than that for StpA2-17 or StchA2-17
